Results from patent US11524944B2, “2-phenylpyrimidine-4-carboxamides as AHR inhibitors” (Bayer Aktiengesellschaft, priority 2017, dated 2022).

Tests used:
Human AhR = molecular target: T1, Human AhR (Homo sapiens, UniProt P35869); test: Transactivation assay in human cell line (in vitro assay 1): antagonism; format: cell-based; details: U87 glioblastoma cells, AHR inducible firefly luciferase reporter (DRE), 150 μM kynurenic acid, 20 hours
T1 construct: host or cells: U87 glioblastoma cells, stably transfected with a DRE firefly luciferase reporter and a constitutive renilla reporter
T1 sequence (P35869 11-848): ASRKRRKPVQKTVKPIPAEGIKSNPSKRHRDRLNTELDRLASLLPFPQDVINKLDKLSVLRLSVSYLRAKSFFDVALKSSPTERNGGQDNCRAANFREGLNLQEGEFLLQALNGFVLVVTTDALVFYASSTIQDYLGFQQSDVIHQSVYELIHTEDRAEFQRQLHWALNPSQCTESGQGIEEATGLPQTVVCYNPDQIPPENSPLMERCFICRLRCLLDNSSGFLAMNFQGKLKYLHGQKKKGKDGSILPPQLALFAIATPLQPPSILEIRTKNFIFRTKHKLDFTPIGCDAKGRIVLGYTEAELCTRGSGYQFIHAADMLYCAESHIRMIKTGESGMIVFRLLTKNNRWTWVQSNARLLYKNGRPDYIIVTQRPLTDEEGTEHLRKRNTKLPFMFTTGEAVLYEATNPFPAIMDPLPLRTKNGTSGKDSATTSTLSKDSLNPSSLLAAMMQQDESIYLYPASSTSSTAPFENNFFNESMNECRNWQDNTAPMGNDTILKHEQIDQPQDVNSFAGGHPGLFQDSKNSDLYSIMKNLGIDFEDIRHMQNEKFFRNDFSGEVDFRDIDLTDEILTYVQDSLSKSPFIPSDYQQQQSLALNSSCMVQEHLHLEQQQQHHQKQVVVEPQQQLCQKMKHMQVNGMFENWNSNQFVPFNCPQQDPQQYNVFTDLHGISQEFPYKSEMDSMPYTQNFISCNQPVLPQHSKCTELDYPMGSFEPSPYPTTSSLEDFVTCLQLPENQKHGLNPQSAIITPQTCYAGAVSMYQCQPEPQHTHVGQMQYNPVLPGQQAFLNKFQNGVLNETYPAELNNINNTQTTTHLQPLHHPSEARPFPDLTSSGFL
Summary of the method: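 U87 glioblastoma cells with endogenous AHR, stably transfected with a DRE-driven firefly luciferase reporter and a constitutive Renilla reporter. Cells prestimulated with kynurenic acid before compound addition. Dual luciferase read-out, with Renilla signal used to flag toxicity.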

Mouse AhR = molecular target: T2, Mouse AhR (Mus musculus, UniProt P30561); test: Transactivation assay in mouse cell line (in vitro assay 2): antagonism; format: cell-based; details: Hepa 1c1c7 cells, AHR inducible firefly luciferase reporter (DRE), 200 μM kynurenic acid, 20 hours
T2 sequence (P30561 1-848 P471L/N533S/M589L): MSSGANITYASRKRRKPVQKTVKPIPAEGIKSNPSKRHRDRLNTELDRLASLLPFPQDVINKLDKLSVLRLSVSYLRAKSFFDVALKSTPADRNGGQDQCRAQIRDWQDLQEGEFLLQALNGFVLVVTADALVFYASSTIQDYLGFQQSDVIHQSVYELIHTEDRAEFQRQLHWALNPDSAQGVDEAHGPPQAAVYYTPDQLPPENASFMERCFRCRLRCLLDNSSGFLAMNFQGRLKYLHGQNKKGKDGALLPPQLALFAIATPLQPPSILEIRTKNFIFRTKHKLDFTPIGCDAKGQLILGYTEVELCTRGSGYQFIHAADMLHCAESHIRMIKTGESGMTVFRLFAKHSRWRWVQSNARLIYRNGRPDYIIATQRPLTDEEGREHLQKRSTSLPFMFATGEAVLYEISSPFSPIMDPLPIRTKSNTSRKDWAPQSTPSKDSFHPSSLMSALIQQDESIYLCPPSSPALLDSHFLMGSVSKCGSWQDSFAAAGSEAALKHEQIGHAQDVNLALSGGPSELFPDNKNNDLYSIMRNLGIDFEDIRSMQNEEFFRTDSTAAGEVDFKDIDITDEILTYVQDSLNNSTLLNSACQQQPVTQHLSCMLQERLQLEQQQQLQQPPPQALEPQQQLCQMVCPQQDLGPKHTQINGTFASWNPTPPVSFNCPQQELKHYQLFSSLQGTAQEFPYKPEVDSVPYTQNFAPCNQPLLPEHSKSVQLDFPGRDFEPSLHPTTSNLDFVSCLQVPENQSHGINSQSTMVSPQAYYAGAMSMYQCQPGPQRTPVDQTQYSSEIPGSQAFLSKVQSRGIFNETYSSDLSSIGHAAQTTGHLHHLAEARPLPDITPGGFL
Method: Examples were tested in selected biological assays one or more times. When tested more than once, data are reported as either average values or as median values, wherein • the average value, also referred to as the arithmetic mean value, represents the sum of the values obtained divided by the number of times tested, and • the median value represents the middle number of the group of values when ranked in ascending or descending order. If the number of values in the data set is odd, the median is the middle value. If the number of values in the data set is even, the median is the arithmetic mean of the two middle values.
Transactivation Assay in Mouse Cell Line (In Vitro Assay 2)
Transactivation assay was carried out in Hepa 1c1c7 cells (ATCC #CRL-2026) endogenously expressing AHR. In addition the cells were stably transfected with an AHR inducible firefly luciferase reporter gene construct that carried AHR-binding sites (DRE) in its promoter. Kynurenic acid is an endogenous AHR activating ligand and was used to prestimulate test cells prior to testing the antagonistic properties of compounds.
In Vitro Assay 2: Antagonism in Mouse Cell Line
Firefly luciferase activity was determined by the SteadyGlo Luciferase Assay System (Promega, #E2550).

| SMILES | IC50 (Human AhR) [nM] | IC50 (Mouse AhR) [nM] |
| --- | --- | --- |
| C[C@@H](CO)NC(=O)c1cc(-c2ccc(OC(F)(F)F)cc2)nc(-c2ccc(F)cc2)n1 [Example 28, 2-(4-fluorophenyl)-N-[(2S)-1-hydroxypropan-2-yl]-6-[4-(trifluoromethoxy)phenyl]pyrimidine-4-carboxamide] | 220 | 108 |
| C[C@@H](CO)NC(=O)c1cc(-c2ccc(Cl)cc2)nc(-c2cccc(C#N)c2)n1 [Example 70, 6-(4-chlorophenyl)-2-(3-cyanophenyl)-N-[(2S)-1-hydroxypropan-2-yl]pyrimidine-4-carboxamide] | 19.3 | 215 |
| O=C(NC1CCCC(F)(F)C1O)c1cc(-c2ccc(OC(F)(F)F)cc2)nc(-c2cccc(F)c2)n1 (stereo not shown) [Example 80, N-(3,3-difluoro-2-hydroxycyclohexyl)-2-(3-fluorophenyl)-6-[4-(trifluoromethoxy)phenyl]pyrimidine-4-carboxamide] | 6.43 | 6.91 |
| CC(C)(O)CNC(=O)c1cc(-c2ccc(Cl)cc2)nc(-c2cc(Cl)cc(Cl)c2)n1 [Example 51, 6-(4-chlorophenyl)-2-(3,5-dichlorophenyl)-N-(2-hydroxy-2-methylpropyl)pyrimidine-4-carboxamide] | 101 | 3090 |
| CC(NC(=O)c1cc(-c2ccc(OC(F)(F)F)cc2)nc(-c2cccc(F)c2)n1)C(O)CO (stereo not shown) [Example 79, N-(3,4-dihydroxybutan-2-yl)-2-(3-fluorophenyl)-6-[4-(trifluoromethoxy)phenyl]pyrimidine-4-carboxamide] | 5.3 | 2.37 |
